Data published in patent US4043759A (priority 1976, dated 1977).

Experiment: Methotrexate concentration in patient serum as function of time after injection, by the radioassay
Assay type: in vivo
Experimental: The preparation of patient samples, such as patient serum and spinal fluid, is as follows:
1. Take 0.3 ml of fluid to be tested and add to 2.7 ml Buffer B to provide a 1:10 dilution.
2. Take 0.3 ml of 1:10 dilution and add to 2.7 ml of Buffer B to provide a 1:100 dilution.
3. Take 0.3 ml of 1:100 dilution and add to 2.7 ml Buffer B to provide a 1:1000 dilution.
4. Take 0.3 ml of 1:1000 dilution and add to 2.7 ml Buffer B to provide 1:10,000 dilution.
6. Centrifuge for 1 or 2 minutes at 2500 × g.
7. Decant supernate liquid into clean tubes.

Concentration of Methotrexate (after infusion): 66000 ng/mL
concentration at 24 h (human, 24 hours after injection): 7200 ng/mL
concentration at 48 h (human, 48 hours after injection): 420 ng/mL
concentration at 63 h (human, 63 hours after injection): 290 ng/mL
concentration at 72 h (human, 72 hours after injection): 200 ng/mL
SMILES: CN(Cc1cnc2nc(N)nc(N)c2n1)c1ccc(C(=O)N[C@@H](CCC(=O)O)C(=O)O)cc1 [Methotrexate]
